Source: patent US5726203A, “Qinghaosu derivatives against AIDS” (priority 1993, dated 1998)

Tested on: HIV-1 (MT4)
Test: Anti-HIV effect on MT4 cells, virus antigen expression (immunoenzymatic method)
Format: cell-based
Description: The virus used was HIV-1 which had been obtained from Professor Montagnier of the Pastear Institute, France. The virus titer used in the experiment was 1×10^4 TCID50 /ml. The cell culture used was CEM cell line which was cultivated in the HIV laboratory of Institute of Virology, Chinese Academy of Preventive Medicine, for cultivation storage of HIV-1.
The compounds used in the experiment were qinghaosu, dihydroqinghaosu, Artesunate, Artemether, dihydroqinghaosu-methylcarbamate, dihydroqinghaosu-benzenecarbamate, qinghaosu-morpholinyl propylether maleate, dihydroqinghaosu-diethyl amino ethyl ether maleate, deoxyqinghaosu-morpholinyl ethyl ether maleate, qinghaosu-morpholinyl propanol ether maleate, qinghaosu-3,5-dimonpholinyl methyl-4-hydroxy benzyl ether maleate, dihydroqinghaosu-m-chlorobenzoate, qinghaosu-3-pyrrolidinylmethyl-4-hydroxybenzoate oxalate, and qinghaosu-3-morpholinylmethyl-4-hydroxybenzoate oxalate. […] The concentration of the original solution of these compounds were all 1 mg/ml.
a. Freshly cultured MT4 cells (5×10^5 /ml) were co-cultivated with the virus fluid (10^3 TCID50 /ml) in a CO2 incubator at 37° C. for 1-1.5 hours. RPMI 1640 complete medium (containing 10% Bovine serum and antibiotics, such as penicillin) was used to wash the unbound virus.
Complete medium was added to correct the concentration for use.
The experiment was carried out on the plates with 96 wells. 0.1 ml of the above-mentioned infected MT4 cell suspension was added into each well, and then 0.1 ml of various concentrations of the drugs were added. […] Each concentration of the drugs was added into two wells. Both the experiment group and the control group were incubated in a CO2 incubator at 37° C. The drug solution were changed 3 days later, and the following observations were carried out 6 days afterwards.
b. Observation on the growth situation of cells. Trypan blue dye was used to observe the quantity of live cells in each group.
c. Determination of the virus antigen expression. The immunoenzymatic method was used to examine the virus antigen expression. Cells from each group were separately smeared in two wells. They were fixed with cold acetone, HIV-positive serum was dropped into the wells. After incubated in a CO2 incubator at 37° C. for 30 minutes, they were washed with PBS for 3 times. Enzyme-labelled SPA was dropped into the wells. They were incubated in the same condition for 30 minutes, washed with PBS for 3 times, and then put in substrate solution to stain for 2-3 minutes, washed with distilled water, and observed under microscope. Normal cells were colorless, whereas virus-carrying cells appeared browrish red.
The mark used were as follows:
The experiment was repeated two to three times.
The concentration of the original fluid of these compounds were all 1 mg/ml. 0.1 ml was taken and added into 0.1 ml of virus-carrying cell suspension, thus the reaction concentrations were as follows: in the original fluid group, 0.1 mg/0.2 ml, i.e., 0.5 mg/ml; in 1×10^-1group, 0.05 mg/ml; in 1×10^-2 group, 0.005 mg/ml; in 1×10^-3 group, 0.0005 mg/ml, i.e., 0.5 μg/ml; and on the analogy of this.

SMILES: CNC(=O)OC1OC2OC3(C)CCC4C(C)CCC(C1C)C24OO3 (centres unmarked) [Dihydroqinghaosu-methylcarbamate, Dihydroqinghaosu-Methylcarbamate]
- effect on HIV-1 (MT4), virus antigen expression (1 × 10^-1 (50 μg/ml)): - (positive cells were not seen in the whole well)
- effect on HIV-1 (MT4), virus antigen expression (1 × 10^-2 (5 μg/ml)): - (positive cells were not seen in the whole well)
- effect on HIV-1 (MT4), virus antigen expression (1 × 10^-3 (0.5 μg/ml)): - (positive cells were not seen in the whole well)
- effect on HIV-1 (MT4), virus antigen expression (1 × 10^-4 (0.05 μg/ml)): - (positive cells were not seen in the whole well)
- inhibition on HIV (according to Table 1): distinct inhibition on HIV
